Measurements as given in patent US20210032139A1, “REGULATING A MICROENVIRONMENT OF ANAEROBIC GRANULAR SLUDGE TO PROMOTE ANAEROBIC DIGESTION AND DELAY CALCIFICATION” (GuangXi University, priority 2019, published 2021).

Columns and labels:
[1] = tested on: anaerobic granular sludge; test: Laboratory anaerobic serum bottle reactor treating papermaking wastewater with daily C8-HSL addition; conditions: after three months; for Methanobactium, Methanosaeta and Methanosarcina in the microbial community: sequencing analysis
Description: First, 50 mL of anaerobic granular sludge and 200 mL of papermaking wastewater collected from a paper mill were placed in a 250 mL anaerobic serum bottle. The bioreactor used in this example involves a 24-hour operation cycle, which has a reaction stage (23.5 h) and a sludge settling stage (0.5 h).
Next, 50 mL of supernatant is removed from the top of the anaerobic serum bottle, and the same volume of fresh papermaking wastewater with N-octyl […] (C8-HSL) is injected into the bottle through a long syringe at the end of the cycle. The injected wastewater is then domesticated for about a week.
2 μg C8-HSL standards are added to the reactor every day after domestication.
The reactor is treated in a constant temperature magnetic stirring water bath at 38° C.
Water samples are collected at the beginning and end of each cycle from the reactor, and sludge samples are also collected at the end of each cycle from the reactor. After a total of three months of operation, sludge biomass is collected by centrifugation at 5000×g for 10 minutes and then frozen for further sequencing analysis. […]

[2] = tested on: anaerobic granular sludge; test: Paper mill anaerobic reactor (1500 m^3) with C8-HSL added to papermaking wastewater at the regulating tank outlet
Description: In an anaerobic reactor of a paper mill, the reactor is 8 m high and its working volume is 1500 m^3. The papermaking wastewater with high calcium content enters into a regulating tank. The regulating tank has a volume of 1000 m^3. When it is detected that the proportion of microorganism content in the anaerobic granular sludge in the anaerobic reactor is less than 0.6, C8-HSL standard of AHLs type signal molecule is added to the paper-making wastewater at the outlet of the regulating tank end, the quantity of C8-HSL standard is 50 mg per cubic meter of papermaking wastewater. The time interval of signal molecule input is controlled by time controller. The regulating pool is equipped with liquid level transmitter to detect the liquid level to prevent the reactor feed pump from idling. The wastewater that is modulated in the regulating tank is injected into the anaerobic reactor through the wastewater feed pump and treated according to the conventional anaerobic way. In the treatment process, water samples are collected once a month, and sludge samples are collected once half a year. Sludge biomass is collected by centrifugation at 5000×g for 10 minutes, and then frozen for further sequencing analysis.

[3] = 2 μg C8-HSL added every day, 38° C.
[4] = 20 μg C8-HSL added every day, 38° C.
[5] = 30 μg C8-HSL added every day (150 mg/m^3)
[6] = 30 μg C8-HSL added every day (150 mg/m^3), 38° C.
[7] = 50 mg C8-HSL per cubic meter of papermaking wastewater, paper mill, after five years

With `CCCCCCCC(=O)N[C@H]1CCOC1=O` [C8-HSL, N-octyl hypererine lactone] the “increase of activity of coenzyme F420 compared with the reactor without exogenous signal molecules” value ([1]; 2 μg C8-HSL added every day) was 33.5%, the “increase of removal rate of COD compared with the reactor without exogenous signal molecules” value ([1]; 2 μg C8-HSL added every day) was 10.8% and the “increase of specific methanogenic activity (SMA) compared with the reactor without exogenous signal molecules” value ([1]; 2 μg C8-HSL added every day) was 32.4%. For the same compound, the “chemical oxygen demand (COD) removal rate” value [1, 3] was 75%, the “content of coenzyme F420” value [1, 3] was 0.18 μmol/gVSS and the “specific methanogenic activity (SMA)” value [1, 3] was 25 mL/(gVSS·h). The “Methanobactium, Methanosaeta and Methanosarcina in the microbial community” value (“Methanobactium … in the microbial community” for short) ([1]; 2 μg C8-HSL added every day) was “enhanced”, the “increase of activity of coenzyme F420 compared with the reactor without exogenous signal molecules” value ([1]; 20 μg C8-HSL added every day) was 48.1% and the “increase of removal rate of COD compared with the reactor without exogenous signal molecules” value ([1]; 20 μg C8-HSL added every day) was 18.2%. For the same compound, the “increase of specific methanogenic activity (SMA) compared with the reactor without exogenous signal molecules” value ([1]; 20 μg C8-HSL added every day) was 43%, the COD removal rate [1, 4] was 80% and the “content of coenzyme F420” value [1, 4] was 0.20 μmol/gVSS. The “specific methanogenic activity (SMA)” value [1, 4] was 27 mL/(gVSS·h), the “Methanobactium … in the microbial community” value ([1]; 20 μg C8-HSL added every day) was “enhanced” and the “increase of activity of coenzyme F420 compared with the reactor of adding 100 mg signal molecule per cubic meter of papermaking wastewater” value [1, 5] was 1.5%. For the same compound, the “increase of activity of coenzyme F420 compared with the reactor without exogenous signal molecules” value [1, 5] was 50.38%, the “increase of removal rate of COD compared with the reactor of adding 100 mg signal molecule per cubic meter of papermaking wastewater” value [1, 5] was 0.375% and the “increase of removal rate of COD compared with the reactor without exogenous signal molecules” value [1, 5] was 18.63%. For the same compound, the “increase of specific methanogenic activity (SMA) compared with the reactor of adding 100 mg signal molecule per cubic meter of papermaking wastewater” value [1, 5] was 1.85%, the “increase of specific methanogenic activity (SMA) compared with the reactor without exogenous signal molecules” value [1, 5] was 45.66% and the COD removal rate [1, 6] was 80.3%. For the same compound, the “content of coenzyme F420” value [1, 6] was 0.203 μmol/gVSS, the “specific methanogenic activity (SMA)” value [1, 6] was 27.5 mL/(gVSS·h) and the “Methanobactium … in the microbial community” value [1, 5] was “enhanced”. The COD removal rate [2, 7] was 75%, the “content of coenzyme F420” value [2, 7] was 0.19 μmol/gVSS and the “specific methanogenic activity (SMA)” value [2, 7] was 24 mL/(gVSS·h). The “calcification of the sludge” value ([2]; 50 mg C8-HSL per cubic meter of papermaking wastewater, paper mill, after five years, without C8-HSL obvious calcification for up to two years) was “has not been calcified”, the “Methanobactium … in the microbial community” value ([2]; 50 mg C8-HSL per cubic meter of papermaking wastewater, paper mill, sequencing analysis) was “enhanced” and the “effect on delaying calcification” value ([2]; paper mill reactor, compared with before signal molecule addition) was “obvious”.
